Laboratory results as given in ChEMBL document CHEMBL1201862, “PubChem BioAssay data set” (2004).
Counter-ions that a name gives are not always drawn. Activity calls are given as the source filed them.

Tests used:
Escherichia coli [1] = experiment: microbe, parasite or virus in culture
[2] = Luminescence Cell-Based Dose Retest to Confirm Inhibitors of Cancer Stem Cells. [Related pubchem assays (depositor defined):AID2717, AID2721]; format: functional; conditions: Homo sapiens
[3] = cytotoxicity in HMLE control line with eGFP shRNA, dose response, counter-screen for HMLE_sh_ECad selective toxicity project, cell-based, HMLE_sh_eGFP, luminescence (AID 463074); format: functional, Homo sapiens;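 note: HMLE human mammary epithelial cells expressing control shRNA against eGFP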
[4] = target: Glucose-6-phosphate 1-dehydrogenase (Homo sapiens, UniProt P11413); experiment: human G6PD enzyme inhibitors, dose response, selectivity assay for P. falciparum G6PD inhibitor project, biochemical, fluorescence (AID 504792); format: functional
Sequence of Glucose-6-phosphate 1-dehydrogenase (P11413 whole entry): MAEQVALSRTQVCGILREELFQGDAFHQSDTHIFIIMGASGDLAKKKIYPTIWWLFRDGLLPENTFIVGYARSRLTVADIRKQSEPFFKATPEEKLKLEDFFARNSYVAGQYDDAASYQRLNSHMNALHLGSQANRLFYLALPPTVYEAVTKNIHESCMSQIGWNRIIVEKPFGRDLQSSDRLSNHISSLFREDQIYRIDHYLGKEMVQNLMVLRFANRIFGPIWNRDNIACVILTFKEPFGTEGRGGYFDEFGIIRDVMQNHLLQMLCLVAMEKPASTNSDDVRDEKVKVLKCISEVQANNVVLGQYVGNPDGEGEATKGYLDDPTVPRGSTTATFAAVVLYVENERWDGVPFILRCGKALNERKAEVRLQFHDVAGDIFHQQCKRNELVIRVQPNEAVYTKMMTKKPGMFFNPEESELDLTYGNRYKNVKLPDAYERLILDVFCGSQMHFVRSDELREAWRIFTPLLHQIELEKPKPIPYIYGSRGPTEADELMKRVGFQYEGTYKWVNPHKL

[5] = target: T1, Short transient receptor potential channel 4 (Mus musculus, UniProt Q9QUQ5); experiment: mouse TRPC4 channel activators, dose response, cell-based, HEK293 TRPC4/mu-opioid, Fluo-4 calcium (AID 434937); format: functional
T1 sequence (Q9QUQ5 whole entry): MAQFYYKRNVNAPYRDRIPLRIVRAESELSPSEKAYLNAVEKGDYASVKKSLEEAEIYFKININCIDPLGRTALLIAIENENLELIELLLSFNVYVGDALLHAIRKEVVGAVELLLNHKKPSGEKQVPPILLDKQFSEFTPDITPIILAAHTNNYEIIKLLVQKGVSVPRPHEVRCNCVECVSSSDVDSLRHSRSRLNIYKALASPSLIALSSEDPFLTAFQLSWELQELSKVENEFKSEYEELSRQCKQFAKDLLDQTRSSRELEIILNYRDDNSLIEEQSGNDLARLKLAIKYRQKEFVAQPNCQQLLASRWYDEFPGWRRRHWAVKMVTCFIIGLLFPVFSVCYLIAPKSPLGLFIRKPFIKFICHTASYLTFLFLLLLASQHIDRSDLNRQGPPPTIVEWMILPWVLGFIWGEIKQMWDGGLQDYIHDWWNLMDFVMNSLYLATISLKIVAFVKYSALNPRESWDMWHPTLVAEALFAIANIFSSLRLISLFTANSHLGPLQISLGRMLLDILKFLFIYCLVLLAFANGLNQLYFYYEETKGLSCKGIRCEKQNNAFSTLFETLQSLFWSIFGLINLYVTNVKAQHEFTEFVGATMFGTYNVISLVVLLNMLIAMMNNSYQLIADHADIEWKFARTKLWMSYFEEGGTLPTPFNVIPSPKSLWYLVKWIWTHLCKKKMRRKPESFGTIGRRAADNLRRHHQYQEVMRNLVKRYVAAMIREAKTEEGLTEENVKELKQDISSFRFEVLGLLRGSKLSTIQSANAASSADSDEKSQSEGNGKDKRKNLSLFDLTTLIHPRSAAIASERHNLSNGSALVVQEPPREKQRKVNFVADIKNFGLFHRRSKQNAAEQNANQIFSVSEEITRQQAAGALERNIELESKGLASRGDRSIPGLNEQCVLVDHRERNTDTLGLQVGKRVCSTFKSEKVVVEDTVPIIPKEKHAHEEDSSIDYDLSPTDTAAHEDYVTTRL

Vero [6] = experiment: cells; format: functional, cell-based; conditions: Chlorocebus sabaeus
Vero [7] = experiment: cells; format: functional; conditions: Chlorocebus sabaeus
[8] = human group III sPLA2 inhibitors, dose response, biochemical, QFRET, IC50 (AID 743457);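 note: green fluorescence rise as the enzyme cleaves BODIPY PC-A2 in liposomes; potency for inhibition of the enzyme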
Escherichia coli [9] = experiment: microbe, parasite or virus in culture; remark: listed apart in the source
HEK293 = experiment: cells; format: functional, cell-based; conditions: Homo sapiens
[10] = target: T2, Nuclear receptor subfamily 0 group B member 1 (Homo sapiens, UniProt P51843); experiment: Luminescence-based cell-based high throughput dose response assay for inhibitors of the orphan nuclear receptor subfamily 0, group B, member 1 (DAX1; NR0B1). [Related pubchem assays (depositor defined):AID504766, AID504790]; format: functional
T2 sequence (P51843 whole entry): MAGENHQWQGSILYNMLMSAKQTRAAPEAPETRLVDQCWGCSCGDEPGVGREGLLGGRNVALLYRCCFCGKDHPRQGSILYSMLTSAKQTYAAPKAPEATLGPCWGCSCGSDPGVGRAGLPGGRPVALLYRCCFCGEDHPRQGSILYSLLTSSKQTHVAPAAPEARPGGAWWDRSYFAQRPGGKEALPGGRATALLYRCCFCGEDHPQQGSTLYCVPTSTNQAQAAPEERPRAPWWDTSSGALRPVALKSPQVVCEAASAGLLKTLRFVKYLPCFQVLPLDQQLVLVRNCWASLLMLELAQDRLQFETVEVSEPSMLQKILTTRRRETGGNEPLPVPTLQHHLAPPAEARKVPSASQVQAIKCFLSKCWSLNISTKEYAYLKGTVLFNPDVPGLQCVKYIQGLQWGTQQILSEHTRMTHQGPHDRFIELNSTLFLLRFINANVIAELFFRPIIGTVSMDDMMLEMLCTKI

[11] = target: T3, Tyrosine-protein phosphatase non-receptor type 7 (Homo sapiens, UniProt P35236); format: functional
T3 sequence (P35236 whole entry): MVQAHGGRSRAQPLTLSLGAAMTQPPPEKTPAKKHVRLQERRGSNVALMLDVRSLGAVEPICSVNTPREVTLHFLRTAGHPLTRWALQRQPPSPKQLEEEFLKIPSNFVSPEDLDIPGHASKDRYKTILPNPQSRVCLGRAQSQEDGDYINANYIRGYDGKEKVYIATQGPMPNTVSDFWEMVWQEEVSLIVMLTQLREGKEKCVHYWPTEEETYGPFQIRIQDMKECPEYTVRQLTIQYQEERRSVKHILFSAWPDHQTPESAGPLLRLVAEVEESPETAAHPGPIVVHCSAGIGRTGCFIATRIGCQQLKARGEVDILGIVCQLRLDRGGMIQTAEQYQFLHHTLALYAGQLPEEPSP

[12] = target: Glyceraldehyde-3-phosphate dehydrogenase (Homo sapiens, UniProt P04406)
Sequence of Glyceraldehyde-3-phosphate dehydrogenase (P04406 whole entry): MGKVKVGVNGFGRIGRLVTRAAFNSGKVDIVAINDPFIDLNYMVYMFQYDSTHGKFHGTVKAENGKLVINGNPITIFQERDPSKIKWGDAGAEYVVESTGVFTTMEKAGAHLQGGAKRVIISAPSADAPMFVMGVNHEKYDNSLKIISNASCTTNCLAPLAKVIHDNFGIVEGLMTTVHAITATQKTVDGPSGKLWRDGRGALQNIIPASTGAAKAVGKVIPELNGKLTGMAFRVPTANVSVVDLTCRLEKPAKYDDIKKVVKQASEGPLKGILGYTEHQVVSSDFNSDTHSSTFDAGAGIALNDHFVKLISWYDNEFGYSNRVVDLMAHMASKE

[13] = target: T4, E3 ubiquitin-protein ligase XIAP (Homo sapiens, UniProt P98170); experiment: Counter Screen using XIAP-Bir3 for Chemical Antagonists of Bir1/2 domains of IAP-family anti-apoptotic proteins. [Related pubchem assays (depositor defined):AID1018, AID1449, AID1514, AID1638, AID1749, AID1750, AID488957, AID488963]
T4 sequence (P98170 whole entry): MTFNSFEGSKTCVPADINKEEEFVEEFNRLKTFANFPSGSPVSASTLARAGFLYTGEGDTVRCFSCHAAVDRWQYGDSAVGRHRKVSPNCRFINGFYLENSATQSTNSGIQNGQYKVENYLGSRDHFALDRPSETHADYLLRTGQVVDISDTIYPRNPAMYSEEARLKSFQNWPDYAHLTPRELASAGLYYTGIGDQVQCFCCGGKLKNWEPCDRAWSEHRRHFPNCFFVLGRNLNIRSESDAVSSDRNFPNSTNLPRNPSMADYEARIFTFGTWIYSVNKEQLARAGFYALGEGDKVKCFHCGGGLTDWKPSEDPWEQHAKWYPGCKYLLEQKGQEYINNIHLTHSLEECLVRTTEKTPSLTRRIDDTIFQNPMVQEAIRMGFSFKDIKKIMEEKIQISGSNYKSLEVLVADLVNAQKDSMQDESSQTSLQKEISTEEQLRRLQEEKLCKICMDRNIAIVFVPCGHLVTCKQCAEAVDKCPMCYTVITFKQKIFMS

[14] = target: T4, E3 ubiquitin-protein ligase XIAP; experiment: XIAP antagonists, biochemical, IAP family, fluorescence polarization (AID 1018); format: functional
[15] = target: T5, Dual specificity protein phosphatase 6 (Rattus norvegicus, UniProt Q64346)
T5 sequence (Q64346 whole entry): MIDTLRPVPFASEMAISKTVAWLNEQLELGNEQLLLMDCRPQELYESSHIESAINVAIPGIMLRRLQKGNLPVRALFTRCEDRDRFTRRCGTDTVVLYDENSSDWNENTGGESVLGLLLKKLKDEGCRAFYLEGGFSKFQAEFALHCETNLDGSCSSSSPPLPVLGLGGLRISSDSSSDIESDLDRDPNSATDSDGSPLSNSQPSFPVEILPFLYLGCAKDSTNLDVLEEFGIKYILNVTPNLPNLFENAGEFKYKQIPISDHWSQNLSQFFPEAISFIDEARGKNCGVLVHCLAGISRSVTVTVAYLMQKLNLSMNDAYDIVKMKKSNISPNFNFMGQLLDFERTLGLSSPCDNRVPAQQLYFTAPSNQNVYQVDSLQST

[16] = target: T5, Dual specificity protein phosphatase 6; format: functional
Trypsin = Trypsin (Sus scrofa, UniProt P00761); experiment: porcine trypsin inhibitors, dose response, selectivity assay for Rce1 protease inhibitor project, biochemical, quenched peptide fluorescence, cherry-pick (AID 488789)
CAAX prenyl protease 2 [17] = target: T6, CAAX prenyl protease 2 (Saccharomyces cerevisiae S288c, UniProt Q03530); format: biochemical
T6 sequence (Q03530 whole entry): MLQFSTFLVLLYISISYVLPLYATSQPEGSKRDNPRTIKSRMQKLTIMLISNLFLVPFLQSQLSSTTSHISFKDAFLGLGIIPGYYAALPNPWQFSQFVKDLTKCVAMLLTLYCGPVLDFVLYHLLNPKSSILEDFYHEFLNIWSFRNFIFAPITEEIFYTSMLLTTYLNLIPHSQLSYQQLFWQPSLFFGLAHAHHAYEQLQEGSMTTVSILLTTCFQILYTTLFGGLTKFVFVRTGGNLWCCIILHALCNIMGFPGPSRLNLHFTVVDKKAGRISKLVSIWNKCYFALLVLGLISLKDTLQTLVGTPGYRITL

CAAX prenyl protease 2 [18] = target: CAAX prenyl protease 2 (Homo sapiens, UniProt Q9Y256); experiment: human Rce1 protease inhibitors, dose response, biochemical, yeast membranes, quenched-peptide fluorescence, cherry-pick (AID 588849)
Sequence of CAAX prenyl protease 2 (Homo sapiens, UniProt Q9Y256) (Q9Y256 whole entry): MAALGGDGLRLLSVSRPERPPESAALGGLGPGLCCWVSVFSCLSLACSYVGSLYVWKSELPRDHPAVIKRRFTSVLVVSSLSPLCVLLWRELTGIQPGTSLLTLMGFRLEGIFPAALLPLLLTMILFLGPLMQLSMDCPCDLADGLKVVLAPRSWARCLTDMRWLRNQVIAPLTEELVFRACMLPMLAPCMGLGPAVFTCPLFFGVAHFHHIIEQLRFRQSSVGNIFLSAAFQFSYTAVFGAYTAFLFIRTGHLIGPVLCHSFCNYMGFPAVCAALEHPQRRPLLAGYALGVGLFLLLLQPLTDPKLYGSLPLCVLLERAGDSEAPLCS

[19] = test system: Streptococcus sp. 'group A'; experiment: growth inhibition of control SK(-) GAS strain, dose response, counter-screen for streptokinase expression inhibitor project, luminescence, kanamycin, BacTiterGlo, confirmation (AID 1900); format: functional, organism-based
NS3 = NS3 (Hepatitis C virus, UniProt A3EZJ3); experiment: PubChem AID 2173; design: species or system Hepacivirus hominis
Sequence of NS3 (A3EZJ3 whole entry): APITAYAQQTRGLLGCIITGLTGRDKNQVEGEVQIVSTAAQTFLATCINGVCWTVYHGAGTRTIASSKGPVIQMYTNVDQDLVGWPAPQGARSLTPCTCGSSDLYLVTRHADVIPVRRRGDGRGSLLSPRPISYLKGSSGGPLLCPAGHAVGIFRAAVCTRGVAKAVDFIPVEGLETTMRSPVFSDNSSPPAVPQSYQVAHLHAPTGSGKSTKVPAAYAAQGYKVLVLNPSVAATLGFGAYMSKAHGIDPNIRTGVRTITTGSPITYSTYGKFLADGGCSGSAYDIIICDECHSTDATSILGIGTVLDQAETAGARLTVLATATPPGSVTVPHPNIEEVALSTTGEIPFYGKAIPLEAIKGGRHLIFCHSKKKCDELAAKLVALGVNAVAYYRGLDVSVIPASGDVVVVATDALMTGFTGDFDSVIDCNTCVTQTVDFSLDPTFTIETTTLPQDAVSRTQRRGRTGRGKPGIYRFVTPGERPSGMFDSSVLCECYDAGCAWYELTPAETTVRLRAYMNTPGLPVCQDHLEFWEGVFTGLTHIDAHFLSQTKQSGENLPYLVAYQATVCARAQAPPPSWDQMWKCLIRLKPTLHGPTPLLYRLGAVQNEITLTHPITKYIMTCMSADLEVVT

[20] = enhancers of respiration in Yfh1-depleted yeast, dose response, Friedreich's ataxia, plus single-dose screen (AID 1465); format: functional;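 note: yeast depleted of Yfh1p frataxin homolog grown on glycerol needing respiration; WST-1 tetrazolium dye reduction as measure of cellular dehydrogenase metabolic activity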
Streptococcus = experiment: Group A Streptococcus viability loss, dose response, counter-screen for streptokinase expression inhibitor project, luminescence, BacTiterGlo (AID 1915); format: functional, organism-based;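 note: potency for reduction of bacterial viability or growth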
[21] = target: T7, Rac GTPase-activating protein 1 (Homo sapiens, UniProt Q9H0H5); experiment: MgcRacGAP GTPase-activating activity inhibitors, confirmation, biochemical, ADP Hunter fluorescence, primary and confirmatory (AID 624330); format: functional
T7 sequence (Q9H0H5 whole entry): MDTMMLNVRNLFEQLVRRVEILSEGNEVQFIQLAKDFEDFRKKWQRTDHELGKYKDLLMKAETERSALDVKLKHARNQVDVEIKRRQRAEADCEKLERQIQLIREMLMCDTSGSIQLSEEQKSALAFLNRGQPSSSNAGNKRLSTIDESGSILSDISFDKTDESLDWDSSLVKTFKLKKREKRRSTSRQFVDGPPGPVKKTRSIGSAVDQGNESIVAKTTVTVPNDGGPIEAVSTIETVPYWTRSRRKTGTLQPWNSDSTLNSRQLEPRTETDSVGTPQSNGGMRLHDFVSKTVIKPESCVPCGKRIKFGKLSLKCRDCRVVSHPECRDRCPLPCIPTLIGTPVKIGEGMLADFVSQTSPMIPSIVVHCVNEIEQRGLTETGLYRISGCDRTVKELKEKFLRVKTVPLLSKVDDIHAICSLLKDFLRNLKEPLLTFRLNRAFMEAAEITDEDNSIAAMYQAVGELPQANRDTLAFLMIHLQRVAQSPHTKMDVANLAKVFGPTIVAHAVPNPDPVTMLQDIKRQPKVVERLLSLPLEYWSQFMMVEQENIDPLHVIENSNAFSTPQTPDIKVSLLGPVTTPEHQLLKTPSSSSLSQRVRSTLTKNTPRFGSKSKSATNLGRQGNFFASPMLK

[22] = target: 1-phosphatidylinositol 4,5-bisphosphate phosphodiesterase gamma-1 (Homo sapiens, UniProt P19174); experiment: Counterscreen for inhibitors of phospholipase C isozymes (PLC-B3): Fluorescence-based biochemical high throughput dose response assay to identify inhibitors of phospholipase C isozymes (PLC-gamma1).
Sequence of 1-phosphatidylinositol 4,5-bisphosphate phosphodiesterase gamma-1 (P19174 whole entry): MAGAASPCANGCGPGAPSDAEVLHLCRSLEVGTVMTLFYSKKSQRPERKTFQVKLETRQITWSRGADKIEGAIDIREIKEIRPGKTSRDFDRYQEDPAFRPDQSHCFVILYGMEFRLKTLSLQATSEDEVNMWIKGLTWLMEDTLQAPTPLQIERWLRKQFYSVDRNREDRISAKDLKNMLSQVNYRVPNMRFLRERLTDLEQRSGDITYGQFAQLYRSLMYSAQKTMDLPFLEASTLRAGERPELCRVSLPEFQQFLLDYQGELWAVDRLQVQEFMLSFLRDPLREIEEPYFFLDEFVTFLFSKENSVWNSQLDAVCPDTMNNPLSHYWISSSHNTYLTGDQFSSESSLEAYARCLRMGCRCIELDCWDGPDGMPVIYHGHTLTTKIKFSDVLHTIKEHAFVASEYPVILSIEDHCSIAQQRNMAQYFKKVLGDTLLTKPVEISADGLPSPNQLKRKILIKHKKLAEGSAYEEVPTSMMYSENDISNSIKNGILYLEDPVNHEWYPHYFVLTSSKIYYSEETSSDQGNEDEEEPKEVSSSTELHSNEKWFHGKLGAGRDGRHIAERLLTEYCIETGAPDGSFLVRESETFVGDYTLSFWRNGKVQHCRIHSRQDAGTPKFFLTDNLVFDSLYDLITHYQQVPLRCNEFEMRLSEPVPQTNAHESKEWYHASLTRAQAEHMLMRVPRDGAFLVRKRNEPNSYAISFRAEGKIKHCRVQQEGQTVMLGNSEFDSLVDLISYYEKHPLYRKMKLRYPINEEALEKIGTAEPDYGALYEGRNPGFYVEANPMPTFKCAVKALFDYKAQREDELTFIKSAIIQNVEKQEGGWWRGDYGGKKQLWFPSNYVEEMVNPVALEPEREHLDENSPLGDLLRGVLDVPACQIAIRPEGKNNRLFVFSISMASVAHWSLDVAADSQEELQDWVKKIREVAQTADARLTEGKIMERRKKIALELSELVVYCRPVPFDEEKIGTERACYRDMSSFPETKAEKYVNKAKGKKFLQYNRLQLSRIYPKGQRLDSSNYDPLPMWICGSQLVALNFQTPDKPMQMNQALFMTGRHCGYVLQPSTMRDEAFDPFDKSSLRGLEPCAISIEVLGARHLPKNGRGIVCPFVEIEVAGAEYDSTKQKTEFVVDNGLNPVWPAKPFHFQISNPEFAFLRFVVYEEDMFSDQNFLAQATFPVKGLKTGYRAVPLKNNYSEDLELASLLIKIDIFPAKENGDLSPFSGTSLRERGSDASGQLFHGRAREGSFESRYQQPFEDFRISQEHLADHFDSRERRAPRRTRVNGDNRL

[23] = target: 1-phosphatidylinositol 4,5-bisphosphate phosphodiesterase beta-3 (Homo sapiens, UniProt Q01970); experiment: Fluorescence-based biochemical high throughput dose response assay to identify inhibitors of phospholipase C isozymes (PLC-B3).
Sequence of 1-phosphatidylinositol 4,5-bisphosphate phosphodiesterase beta-3 (Q01970 whole entry): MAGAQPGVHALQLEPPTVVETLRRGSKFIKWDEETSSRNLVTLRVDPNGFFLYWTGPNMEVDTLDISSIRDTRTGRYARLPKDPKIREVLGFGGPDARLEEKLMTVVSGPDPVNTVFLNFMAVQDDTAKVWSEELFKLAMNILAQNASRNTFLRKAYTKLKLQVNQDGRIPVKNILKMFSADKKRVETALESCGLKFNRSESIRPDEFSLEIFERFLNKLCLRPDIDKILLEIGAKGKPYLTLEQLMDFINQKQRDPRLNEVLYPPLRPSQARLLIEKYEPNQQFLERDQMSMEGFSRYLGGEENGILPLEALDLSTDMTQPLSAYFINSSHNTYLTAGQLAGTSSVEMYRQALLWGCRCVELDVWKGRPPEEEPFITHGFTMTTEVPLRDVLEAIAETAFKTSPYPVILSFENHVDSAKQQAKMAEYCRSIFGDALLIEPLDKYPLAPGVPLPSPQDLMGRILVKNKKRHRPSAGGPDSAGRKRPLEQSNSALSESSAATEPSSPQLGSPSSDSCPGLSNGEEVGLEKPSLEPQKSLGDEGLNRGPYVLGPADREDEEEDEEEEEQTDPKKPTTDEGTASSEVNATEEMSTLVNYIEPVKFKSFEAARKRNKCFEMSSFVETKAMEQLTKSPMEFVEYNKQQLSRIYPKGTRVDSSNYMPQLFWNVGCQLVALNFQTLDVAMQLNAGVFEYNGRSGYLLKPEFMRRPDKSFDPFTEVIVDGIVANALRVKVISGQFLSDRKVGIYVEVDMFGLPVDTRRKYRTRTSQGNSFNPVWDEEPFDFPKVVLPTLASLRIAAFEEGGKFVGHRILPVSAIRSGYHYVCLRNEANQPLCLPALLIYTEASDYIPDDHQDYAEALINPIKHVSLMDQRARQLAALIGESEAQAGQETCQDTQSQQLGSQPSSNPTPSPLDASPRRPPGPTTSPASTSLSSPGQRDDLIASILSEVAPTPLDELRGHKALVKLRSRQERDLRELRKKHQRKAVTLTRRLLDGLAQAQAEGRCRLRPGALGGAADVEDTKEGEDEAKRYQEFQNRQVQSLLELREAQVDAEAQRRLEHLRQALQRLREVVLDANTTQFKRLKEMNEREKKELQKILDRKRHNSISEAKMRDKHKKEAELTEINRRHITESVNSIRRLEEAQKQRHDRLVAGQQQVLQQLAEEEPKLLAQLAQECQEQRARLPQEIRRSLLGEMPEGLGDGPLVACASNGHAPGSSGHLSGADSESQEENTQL

Cc1ccc(-c2[nH]nc3c2C(c2ccccc2)N(c2ccc(C(=O)O)cc2)C3=O)cc1 (configuration not stated)
AC50 (Escherichia coli [1]): 35.3 µM (active)

Cc1ccc(P(=S)(c2ccc(C)o2)N2CCOCC2)o1
AC50 [2]: > 195 µM (inactive) | AC50 [3]: 78.2 µM (active)

C=CCOc1c(Cl)cc(CNc2ccc3[nH]c(O)nc3c2)cc1OC
IC50 [4]: > 80 µM (inactive)

COc1ccc(C(=O)NC(=S)NNC(=O)c2cccc(C)c2)cc1
EC50 [5]: 3.35 µM (active) | IC50 (Vero [6]): 23.7 µM (active) | CC50 (Vero [7]): > 25 µM (active) | IC50 [8]: 75.7 µM (inactive)

C/C=C(/C)C(=O)Nc1cccc(C2=NOC3(C2)C[C@H](C(N)=O)N(C(=O)c2ccc(Cl)cc2)C3)c1 (some centres not stated)
AC50 (Escherichia coli [9]): 48 µM (active)

Cc1ccc2nc(-c3ccc(NC(=S)NCC(C)(C)CN(C)C)cc3)sc2c1
IC50 (Vero [6]): 15.4 µM (active) | IC50 (HEK293): > 67.5 µM (inactive) | IC50 [10]: > 67.5 µM (inactive)

Cn1c(C(=O)N2CCCC(C(=O)NCCCSC3CCCCC3)C2)cc2sccc21 (configuration not stated)
AC50 [2]: 5.7 µM (active) | AC50 [3]: 21.6 µM (active)

O=C(O)[C@@H](O)c1ccccc1
IC50 [11]: > 100 µM (not active) | IC50 [12]: > 100 µM (not active) | IC50 [13]: > 100 µM (inactive) | IC50 [14]: > 100 µM (not active) | IC50 [15]: > 100 µM (inactive) | IC50 [16]: > 100 µM (inactive)

CCOc1ccc(S(=O)(=O)Nc2cc(OC)c(OC)cc2C(=O)O)cc1
AC50 (Trypsin): 7.53 µM (active) | AC50 (CAAX prenyl protease 2 [17]): 9.8 µM (active) | AC50 (CAAX prenyl protease 2 [18]): 4.23 µM (active)

C=C1c2cccc(O)c2C(=O)C2=C(O)[C@]3(O)C(=O)C(C(N)=O)=C(O)[C@@H](N(C)C)[C@@H]3[C@@H](O)[C@H]12 [METHACYCLINE HYDROCHLORIDE]
EC50 [19]: 0.099 µM (active) | IC50 (NS3): > 109 µM (not active) | EC50 [20]: > 100 µM (active) | EC50 (Streptococcus): 0.109 µM (active) | IC50 [21]: 66.8 µM (active) | IC50 [22]: > 122 µM (inactive) | IC50 [23]: > 122 µM (inactive) | AC50 (Escherichia coli [1]): 29.5 µM (active) | AC50 (Escherichia coli [9]): 0.707 µM (active)
